We go through two compounds from publication PMC8110578, “Phenylethynylbenzyl-modified biguanides inhibit pancreatic cancer tumor growth” (Scientific Reports, 2021).

Read-outs that look alike come from different tables or passages of the source.

Data set [1] relates to KP4 cells. The experiment in a line: Seahorse analysis of OCR and ECAR, KP4 cells. It is filed as cell-based, human. The conditions noted are these: 1b 15 µM; for Effect on ECAR (extracellular acidification rate): metformin; for Effect on oxygen consumption rate (OCR): metformin 5 mM. An excerpt:
(§1) Figure 3 Effects of biguanides on cell proliferation and viability in pancreatic cancer cells. […]. […] | decimal sign comma or point
Next, we used the Seahorse analyser to quantify the ability of compound 1b to affect oxygen consumption rate (OCR) in KP4 cells. […]. […] […].
(§2) All chemicals were purchased from Aldrich Chemicals in their highest purity and used without further purification. Deuterated dimethylsulfoxide (DMSO-d^6) and deuterated chloroform (CDCl3) were purchased from CDN Isotopes. NMR spectra were recorded on Bruker advance 400 and 100 spectrometers. Coupling constants are given in hertz (Hz) and chemical shifts are given in parts per million (ppm, δ) measured relative to the residual solvent (the multiplicity of the signals are given as s: singlet, d: doublet, t: triplet, and m: multiplet). High-resolution mass spectra (HRMS) were recorded on a TSQ Quantum Ultra (Thermo Scientific) triple quadrupole with accurate mass option instrument (Université de Montréal Mass Spectrometry Facility). MS experiences were performed using an UltrafleXtreme MALDI TOF/TOF mass spectrometer equipped with a SmartBeam II Nd:Yag/355 nm laser operating at 1 kHz and providing a laser focus down to 20 μm in diameter (Bruker Daltonics, Billerica, MA). The data acquisition for MS was performed in positive ion mode using the linear geometry with flexControl 3.4 (Bruker Daltonics, Billerica, MA). Acceleration voltage was set to + 25 kV and all other instrumental parameters (delayed extraction parameters, source voltages, detector gain, laser energy, etc.) were optimized for maximum S/N for the drug compounds. L-α-Phosphatidylcholine was purchased from Avanti Polar Lipids. Transport and depolarization studies as well as absorbance measurements were performed on a Varian Cary Eclipse fluorescence spectrophotometer. The hemolysis assays were performed on a Fluostar Optima plate reader. Single crystals of C18H18F3N5O3S were obtained from chloroform. A suitable crystal was selected and analysed on a Bruker Venture Metaljet diffractometer. Crystal violet retention assay was used for cell growth assays and IC50 were determined using Prism (GraphPad). NAD/NADH quantitation colorimetric kit (#K337-100) from Biovision was used according to manufacturer’s instructions. ECAR (extracellular acidification rate) and OCR of KP4 cells (oxygen consumption rate) were measured on a Seahorse XF-24 (Agilent).
Experimental. ECAR (extracellular acidification rate) and OCR of KP4 cells (oxygen consumption rate) were measured on a Seahorse XF-24 (Agilent). The day before the experiment, KP4 cells were seeded in XF24 FluxPak seahorse plates (Agilent) at a density of 40.000 cells per well, in usual KP4 culture medium (DMEM, 10% FSB). […]

The subject of another data set is HPNE-hTERT cells. The experiment in a line: Cell death assay (trypan blue), HPNE-hTERT cells. It is filed as cell-based, human. To be noted: 15 µM for 24 h.
Description: as §1
(§3) Experimental. […] At the end of the treatments, adherent cells were recovered by trypsinization, along with floating cells recovered by centrifugation of the culture medium. Floating and adherent cells were pooled together. The faction of dead cells was quantified by counting the proportion of trypan blue-positive (dead cells) and the proportion of living cells (trypan blue-negative).

Data set [2] is described as follows: Safranin O assay, membrane potential of EYPC liposomes. To be noted: 5 mM (50 mol% relative to 10 mM EYPC). The procedure:
Figure 2 (A) Partition of compounds in an U-tube experiment. Concentration of biguanide on the trans-side of the U-tube at 48 h and 72 h at 25 °C, after addition of 250 µM of biguanide on the cis-side. (B) Variation in the internal pH of HPTS-containing EYPC liposomes. Intravesicular solution: 1 mM HPTS, 10 mM HEPES, and 100 mM NaCl, adjusted to pH = 7.4, and extravesicular solution: 10 mM HEPES and 100 mM NaCl, adjusted to pH = 7.4. Biguanidiums were injected after 50 s at 5 mM (50 mol% relative to the 10 mM EYPC concentration), a NaOH pulse was induced at 300 s, and the liposomes were lysed with Triton-X at 550 s. Each curve is the average of three independent measurements. (C) Fluorescence of safranin O in the EYPC liposomes. Biguanidium salts were injected at 5 mM (50 mol% relative to the 10 mM EYPC concentration) at 50 s. Each curve is the average of three independent measurements. […] Mitochondrial isolation was performed according to the previously reported protocol.

Another data set relates to KP4 tumor sections. The experiment in a line: KI67 and cleaved caspase 3 staining of tumor sections from treated mice. It is filed as in vivo, nude mice. To be noted: 50 mg/kg, tumor sections after treatment. An excerpt:
(B) Body weight of mice seven days after treatment. […] Representative images shown. Scale bar = 100 µm.
To assess the mechanism of the antitumor activity, we stained tumor sections obtained from animals after the treatment protocol for proliferation marker KI67 and apoptosis marker cleaved caspase 3, and quantified the data according to the scoring key in Fig. 5C. […] However, there were no significant differences in staining for cleaved caspase 3 […].

The nature of data set [3]: Octanol/water partition (logP) of compound 1b. It is filed as physicochemical. The conditions noted are these: for logP at 24 h: octanol/water. The procedure:
Experimental. A 10 µM or 20 µM solution of 1b was prepared in 5 ml of octanol and mixed with 5 ml distilled water at 25°C The solution was stirred and was left to settle for 24 hours before the absorbance of the octanol fraction was measured. The values obtained were fitted on a calibration curve prepared by measuring the absorbance of 1b in octanol at various concentrations (2.5, 10, 15, 20 and 30 µM). The logP was calculated using the following formula: […]
Where [1b]oct is the concentration of 1b in octanol and [1b]water is the concentration of 1b in water.

Data set [4] concerns KP4 cells. The experiment in a line: Cell death assay (trypan blue), KP4 cells. To be noted: 15 µM for 24 h. It is filed as cell-based, human.
Description: as §3

Data set [5] concerns NAD+/NADH ratio in KP4 cells. The experiment in a line: NAD/NADH quantification, KP4 cells. It is filed as cell-based, human. The procedure: as §2, with “MS experiences were performed using an UltrafleXtreme MALDI TOF/TOF mass spectrometer equipped with a SmartBeam II Nd:Yag/355 nm laser operating at 1 kHz and providing a laser focus down to 20 μm in diameter (Bruker Daltonics, Billerica, MA). The data acquisition for MS was performed in positive ion mode using the linear geometry with flexControl 3.4 (Bruker Daltonics, Billerica, MA). Acceleration voltage was set to + 25 kV and all other instrumental parameters (delayed extraction parameters, source voltages, detector gain, laser energy, etc.) were optimized for maximum S/N for the drug compounds. L-α-Phosphatidylcholine was purchased from Avanti Polar Lipids.” left out, “Single crystals of C18H18F3N5O3S were obtained from chloroform.” left out, “(Agilent). […]” for “(Agilent).”

In the case of `N=C(N)NC(=N)NCc1ccc(C#Cc2ccccc2)cc1` [1b, 4-(phenylethynyl)benzylbiguanide], the “Effect on ECAR (extracellular acidification rate)” value with KP4 cells [1] was “also observed with compound 1b”. In addition, in the data set with KP4 cells [1], the “Effect on oxygen consumption rate (OCR)” value was “inhibited OCR”. Also, in the data set with HPNE-hTERT cells, the “Effect on the fraction of dead HPNE cells” value is given as “did not increase the fraction of dead cells”. Moreover, in data set [2], the “Membrane depolarization (Safranin-O fluorescence)” value is on record as “depolarization of the membrane”. Besides, the “KI67 staining in tumors” value with KP4 tumor sections is reported as “reduced KI67 staining in tumors”. The “[1b] in octanol” value in data set [3] (Partition 1 (10 µM)) is recorded as 6.91 µM; in data set [3] (Partition 2 (20 µM)), 15.15 µM. In addition, the “[1b] in water” value is reported as 3.09 µM in data set [3] (Partition 1 (10 µM)) and 4.85 µM in data set [3] (Partition 2 (20 µM)). Further, the lipophilicity (logP) (as a rule, the decadic logarithm of the partition coefficient of the neutral form, usually between octanol and water) at 24 h came to 0.35 in data set [3] (Partition 1 (10 µM), 25°C, 24 hours, read-out: logP); 0.5 in data set [3] (Partition 2 (20 µM), 25°C, 24 hours, read-out: logP); 0.42 in data set [3] (logP (mean of partitions 1 and 2), 25°C, spread ± 0.10 in its own column); 0.4 in data set [3] (read-out: logP). In the data set with KP4 cells [4], the “Increase of the fraction of dead KP4 cells” value is given as ~ 20%. In addition, the “Decrease of NAD+/NADH ratio” value in data set [5] (KP4 cells, 15 µM, 18 h) was found to be 40%. The “Fold lower concentration than metformin for AMPK activation, decrease of NAD+/NADH ratio and mitochondrial respiration” value in data set [5] (abstract) came to 800 fold.
As for `CN(C)C(=N)NC(=N)N` [metformin, 1,1-dimethylbiguanide, reference compound], in the data set on KP4 cells [1], the “Effect on ECAR (extracellular acidification rate)” value was “increase of the ECAR” and the “Effect on oxygen consumption rate (OCR)” value is reported as “Inhibition of OCR”. Further, in data set [2], the “Membrane depolarization (Safranin-O fluorescence)” value is reported as “did not show this activity”.
